Assay results: ChEMBL document CHEMBL1146179, “Desosamine in multicomponent reactions” (Bioorg Med Chem Lett, 2006)
Active and inactive are the calls of the source.

Tests used:
Type in all cases: functional, organism-based
[1] = test system: Escherichia coli; experiment: Antibacterial activity against Escherichia coli at 100 mM
[2] = test system: Staphylococcus aureus; experiment: Antibacterial activity against Staphylococcus aureus ATCC 6538 at 100 mM
[3] = test system: Staphylococcus aureus; experiment: Antibacterial activity against Staphylococcus aureus ATCC 6538 at 400 mM
[4] = test system: Candida albicans; experiment: Antifungal activity against Candida albicans ATCC 10231 at 50 mM
[5] = test system: Escherichia coli; experiment: Antibacterial activity against Escherichia coli at 400 mM
[6] = test system: Bacillus subtilis; experiment: Antibacterial activity against Bacillus subtilis at 400 mM
[7] = test system: Bacillus subtilis; experiment: Antibacterial activity against Bacillus subtilis at 50 mM
[8] = test system: Bacillus subtilis; experiment: Antibacterial activity against Bacillus subtilis at 100 mM
[9] = test system: Escherichia coli; experiment: Antibacterial activity against Escherichia coli at 50 mM
[10] = test system: Staphylococcus aureus; experiment: Antibacterial activity against Staphylococcus aureus ATCC 6538 at 50 mM
[11] = test system: Candida albicans; experiment: Antifungal activity against Candida albicans ATCC 10231 at 400 mM
[12] = test system: Candida albicans; experiment: Antifungal activity against Candida albicans ATCC 10231 at 100 mM

Measured: Activity

C[C@@H]1C[C@H](N(C)C)[C@@H](O)C(NCc2nnnn2C(C)(C)C)O1 (some centres undefined)
inactive: all assays above

COC(=O)Cn1nnnc1C(NC1O[C@H](C)C[C@H](N(C)C)[C@H]1O)c1ccccc1 (some centres undefined)
inactive: all assays above
